Measurements as given in paper PMC3222680 (PLoS ONE, 2011).
Substitutions are numbered along the chain they refer to.

Tests used:
Format in all cases: cell-based
αV25′A β-αWT GlyR = target: T1, αV25′A β-αWT GlyR (Homo sapiens, UniProt P23415+P48167, V305A)
T1 construct: The α R218-Q219 and β R242-Q243 are also the joining sites for chimeras constructed between the ECD and TMD; expressed in transfected cells; host or cells: HEK293 (ATCC)
T1 sequence (P23415 29-449 isoform P23415-2 V305A): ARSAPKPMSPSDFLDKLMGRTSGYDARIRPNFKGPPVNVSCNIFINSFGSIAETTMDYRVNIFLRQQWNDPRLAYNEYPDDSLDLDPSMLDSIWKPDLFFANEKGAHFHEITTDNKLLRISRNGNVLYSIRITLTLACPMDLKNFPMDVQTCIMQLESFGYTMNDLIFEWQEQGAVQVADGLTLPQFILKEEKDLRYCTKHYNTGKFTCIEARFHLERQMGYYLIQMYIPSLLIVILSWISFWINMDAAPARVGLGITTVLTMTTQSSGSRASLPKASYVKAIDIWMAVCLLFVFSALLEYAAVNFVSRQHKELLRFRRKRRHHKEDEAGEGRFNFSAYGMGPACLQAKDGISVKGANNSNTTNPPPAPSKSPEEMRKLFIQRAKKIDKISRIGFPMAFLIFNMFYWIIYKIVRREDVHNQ
T1 sequence (P48167+P23415 with tags, fused parts or gaps P48167:V266M/P48167:F268Y/P48167:M270L/P48167:M271I/P48167:G272Q/P48167:V273M/P48167:A275I/P48167:T277S/P48167:V282I/P48167:L286I/P48167:P292M/P48167:S295A/P48167:A296P/P48167:P300G): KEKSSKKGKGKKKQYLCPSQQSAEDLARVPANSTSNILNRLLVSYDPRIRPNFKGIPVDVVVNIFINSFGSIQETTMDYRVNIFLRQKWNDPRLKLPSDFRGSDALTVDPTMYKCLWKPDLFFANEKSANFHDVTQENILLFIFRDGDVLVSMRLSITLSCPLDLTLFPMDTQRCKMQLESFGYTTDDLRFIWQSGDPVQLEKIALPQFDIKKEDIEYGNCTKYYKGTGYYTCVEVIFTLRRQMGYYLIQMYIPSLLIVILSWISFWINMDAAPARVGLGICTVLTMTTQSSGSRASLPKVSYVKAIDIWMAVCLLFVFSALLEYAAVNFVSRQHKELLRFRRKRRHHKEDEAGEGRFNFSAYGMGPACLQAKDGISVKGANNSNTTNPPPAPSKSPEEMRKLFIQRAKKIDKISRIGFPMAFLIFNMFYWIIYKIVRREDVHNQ
Experimental: (§1) The human GlyR α1 and β subunit cDNAs were subcloned into the pcDNA3.1zeo+ (Invitrogen) or pGEMHE [44] plasmid vectors for expression in HEK293 cells or Xenopus oocytes, respectively. Site-directed mutagenesis and chimera construction were performed using the QuickChange (Stratagene, La Jolla, CA, USA) mutagenesis and multiple-template-based sequential PCR protocols, respectively.
(§2) For the β-α chimeras used for determining the effect of hyperekplexia-mimicking mutations on α1 β GlyR channel function, the Thr at the M2 6′ position was replaced by a Cys. […] Through such a modification, picrotoxin resistance was used to distinguish the heteromeric α1 β-α GlyR from the homomeric α1 GlyR when the α1 and β-α subunits were co-expressed.
(§3) The effects of the hyperekplexia-mimicking mutations, K24′A, V25′A and Y27′A, were examined on GlyRs expressed in HEK293 cells (ATCC). Details of the HEK293 cell culture, GlyR expression and electrophysiological recording of the HEK293 cells are described elsewhere. Briefly, HEK293 cells were maintained in DMEM supplemented with 10% fetal bovine serum. Cells were transfected using a calcium phosphate precipitation protocol. When co-transfecting the α1 together with the β or any other chimera subunits, their respective cDNAs were combined in a ratio of 1∶10. In addition, the pEGFP-N1 (Clontech) was co-transfected to facilitate identifying the transfected cells. […] Cells were treated with external Ringer's solution and internal CsCl solution [30]. Cells were voltage-clamped at −40 mV. When the heteromeric GlyRs were expressed, the picrotoxin sensitivity was tested to confirm that the majority of receptors are heteromers, [30].
(§4) Results are expressed as mean±standard error of the mean of three or more independent experiments. […] Statistical significance was determined using the Student's t-test.

αWT β-αV25′A GlyR = target: T2, αWT β-αV25′A GlyR (Homo sapiens, UniProt P23415+P48167, A275I/A296P/F268Y/G272Q/L286I/M270L/M271I/P292M/P300G/S295A/T277S/V266M/V273M/V282I/V305A)
T2 construct: The α R218-Q219 and β R242-Q243 are also the joining sites for chimeras constructed between the ECD and TMD; expressed in transfected cells; host or cells: HEK293 (ATCC)
T2 sequence (P23415 29-449 isoform P23415-2): T1 sequence (P23415 29-449 isoform P23415-2 V305A) with A277V
T2 sequence (P48167+P23415 with tags, fused parts or gaps P48167:V266M/P48167:F268Y/P48167:M270L/P48167:M271I/P48167:G272Q/P48167:V273M/P48167:A275I/P48167:T277S/P48167:V282I/P48167:L286I/P48167:P292M/P48167:S295A/P48167:A296P/P48167:P300G/P23415:V305A): T1 sequence (P48167+P23415 with tags, fused parts or gaps P48167:V266M/P48167:F268Y/P48167:M270L/P48167:M271I/P48167:G272Q/P48167:V273M/P48167:A275I/P48167:T277S/P48167:V282I/P48167:L286I/P48167:P292M/P48167:S295A/P48167:A296P/P48167:P300G) with V301A
Experimental: as §1, §2, §3, §4

αWT β-αWT GlyR = target: T3, αWT β-αWT GlyR (Homo sapiens, UniProt P23415+P48167, A275I/A296P/F268Y/G272Q/L286I/M270L/M271I/P292M/P300G/S295A/T277S/V266M/V273M/V282I)
T3 construct: The α R218-Q219 and β R242-Q243 are also the joining sites for chimeras constructed between the ECD and TMD; expressed in transfected cells; host or cells: HEK293 (ATCC)
T3 sequence (P23415 29-449 isoform P23415-2): T1 sequence (P23415 29-449 isoform P23415-2 V305A) with A277V
T3 sequence (P48167+P23415 with tags, fused parts or gaps P48167:V266M/P48167:F268Y/P48167:M270L/P48167:M271I/P48167:G272Q/P48167:V273M/P48167:A275I/P48167:T277S/P48167:V282I/P48167:L286I/P48167:P292M/P48167:S295A/P48167:A296P/P48167:P300G): T1 sequence (P48167+P23415 with tags, fused parts or gaps P48167:V266M/P48167:F268Y/P48167:M270L/P48167:M271I/P48167:G272Q/P48167:V273M/P48167:A275I/P48167:T277S/P48167:V282I/P48167:L286I/P48167:P292M/P48167:S295A/P48167:A296P/P48167:P300G)
Experimental: as §1, §2, §3, §4

[1] = αV25′A β-αWT, HEK293, with glycine at EC50 of α1 homomer
[2] = αWT β-αV25′A, HEK293, with glycine at EC50 of α1 homomer
[3] = αWT β-αWT, HEK293, with glycine at EC50 of α1 homomer

Molecule	Imax (αV25′A β-αWT GlyR) [nA]	nH (αV25′A β-αWT GlyR)	Imax (αWT β-αV25′A GlyR) [nA]	nH (αWT β-αV25′A GlyR)	Imax (αWT β-αWT GlyR) [nA]	nH (αWT β-αWT GlyR)	10uM PTX inhibition (%) (αV25′A β-αWT GlyR; [1])	100uM PTX inhibition (%) (αV25′A β-αWT GlyR; [1])	10uM PTX inhibition (%) (αWT β-αV25′A GlyR; [2])	100uM PTX inhibition (%) (αWT β-αV25′A GlyR; [2])	10uM PTX inhibition (%) (αWT β-αWT GlyR; [3])	100uM PTX inhibition (%) (αWT β-αWT GlyR; [3])
NCC(=O)O [glycine]	8.9±1.5	1.7±0.3	11.0±1.1	2.2±0.3	8.0±2.3	2.4±0.4	–	–	–	–	–	–
picrotoxin [PTX]	–	–	–	–	–	–	12.0±2.5	37±6	8.8±1.6	31±1	8.5±1.9	26±2
